According to US20230069174A1, “NITROGEN-CONTAINING HETEROCYCLIC AUTOTAXIN INHIBITOR, AND COMPOSITION CONTAINING SAME AND USE THEREOF” (SICHUAN HAISCO PHARMACEUTICAL CO., LTD., priority 2019, published 2023):
Like-named read-outs stand apart in the source and are kept apart here.

What was measured:
ATX = molecular target: T1, ATX (Homo sapiens, UniProt Q13822); test: ATX inhibitory activity: LPA production in pooled human plasma, LC-MS-MS; type: biochemical; settings: 37° C. 2 h
T1 construct: ATX activity was detected by detecting LPA production in pooled human plasma; from tissue; host or cells: pooled human plasma (heparin-anticoagulated whole blood, centrifuged)
Method: Experimental subject: compounds to be tested.
ATX activity was detected by detecting LPA production in pooled human plasma. Whole blood anticoagulated with heparin was collected and centrifuged, and then plasma was collected. 5-μL gradient dilution of the compound to be tested or DMSO was added to 95-μL plasma, incubated at 37° C. for 2 h, then a stop solution (40 mM disodium hydrogen phosphate buffer, containing a buffer solution (containing 30 mM citric acid, pH=4)) was added. LPA in plasma was detected by LC-MS-MS before and after incubation.
LPA (18:2) and (20:4) LC-MS-MS analytical method
Using a 1.5 mL EP tube, 3.0 μL of each of the working solutions for standard curve and quality control was taken and added to 27.0 μL of water. After homogeneously mixing by vortex, 400 μL of internal standard solution was added. After homogeneously mixing by vortex, the mixture was centrifuged at 4° C. for 10 min. 180 μL of supernatant was taken and added into a 96-well plate, waiting for sample injection.
10 μL of the compound to be tested (10 mg/ml) was precisely pipetted into an EP tube, 990 μL of DMSO solution was added, and the mixture was vortexed to completely dissolve to obtain a solution (100 μg/mL).
Inhibition rate of ATX receptor activity was calculated in the following way: inhibition rate %=((LPAc−LPA0)−(LPAi−LPA0))/(LPAc−LPA0)*100%, wherein LPAc was the LPA content in plasma after DMSO was added and incubated for 2 h, LPA0 was the LPA content in plasma before DMSO was added for incubation, and LPAi was the LPA content in plasma after test compound was added and incubated for 2 h.

[1] = Pharmacokinetic experiment in mice (single dose iv and intragastric); type: in vivo; settings: mouse, plasma, male C57 mice; for bioavailability: po 10 mg/kg vs iv 2.5 mg/kg, read-out: F (bioavailability)
Method: Experimental objective: In this experiment, a single dose of each test compound was administered to C57 mice intravenously and intragastrically, the concentrations of the compounds 35, 37 and 38 in plasma of the mice were measured, and the pharmacokinetic characteristics and bioavailability of each test compound in mice were evaluated.
Experimental animals: Male C57 mice, 20-25 g, 6-8 weeks old, 18 mice/compound. The experimental animals were purchased from CHENGDU DOSSY EXPERIMENTAL ANIMALS CO., LTD.
Experimental method: On the day of the experiment, 18 C57 mice were randomly grouped according to their body weight. The animals were fasted with water available for 12 to 14 hours one day before the administration of a test compound, and were fed 4 hours after the administration.
Before and after the administration, 0.08 ml of blood was taken from the orbit of the […] under isoflurane anesthesia, and placed in an EDTAK2 centrifuge tube. Centrifugation was carried out at 5000 rpm at 4° C. for 10 min and the plasma was collected.
Time points for plasma collection in G1 group: 0, 5, 15, 30 min, 1, 2, 4, 6, 8, and 24 h.
Time points for plasma collection in G2 group: 0, 15, 30 min, 1, 2, 4, 6, 8, and 24 h.
Before analysis and detection, all samples were stored at −80° C.
30 μL of each of plasma sample, standard curve and quality control sample was taken, and 200 μL of acetonitrile solution containing internal standard was added, and the mixture was homogeneously mixed by vortex, and then centrifuged at 12000 rpm for 10 min at 4° C. The supernatant was taken and added into a 96-well plate and analyzed by LC-MS/MS.
The main pharmacokinetic parameters were analyzed by non-compartmental model using WinNonlin 8.0 software.

[2] = LPA 18:2 readout, read-out: Inhibitory activity against ATX receptor, LPA 18:2 IC50
[3] = LPA 20:4 readout, read-out: Inhibitory activity against ATX receptor, LPA 20:4 IC50

Compound | IC50 (ATX; [2]) [nM] | IC50 (ATX; [3]) [nM] | bioavailability [1] [%] | AUC ([1]; iv 2.5 mg/kg) [ng·h/mL] | C0 ([1]; iv 2.5 mg/kg) [ng/mL] | half-life ([1]; iv 2.5 mg/kg) [min] | AUC ([1]; po 10 mg/kg) [ng·h/mL] | Cmax ([1]; po 10 mg/kg) [ng/mL] | Tmax ([1]; po 10 mg/kg) [min] | half-life ([1]; po 10 mg/kg) [min]
C[C@@](F)(C(=O)N1CCc2[nH]nnc2C1)c1nnc(-c2cnc(NC3Cc4ccccc4C3)nc2)o1 (single isomer, unassigned) [Compound 38] | 5.53 | 5.88 | 59.3 | 1480 | 3330 | 33.1 | 3500 | 3590 | 15 | 48.3
O=C(Cc1nnc(-c2cnc(N[C@@H]3Cc4ccc(C(F)(F)F)cc4C3)nc2)o1)N1CCc2[nH]nnc2C1 [Compound 35, (R)-1-(1,4,6,7-tetrahydro-5H-[1,2,3]triazolo[4,5-c]pyridin-5-yl)-2-(5-(2-((5-(trifluoromethyl)-2,3-dihydro-1H-inden-2-yl)amino)pyrimidin-5-yl)-1,3,4-oxadiazol-2-yl)ethan-1-one] | 2.17 | 2.25 | 35.6 | 6780 | 6850 | 61.2 | 9650 | 3370 | 30 | 56.8
